# Data reported in patent publication US7825256B2, “Inducible nitric oxide synthase dimerization inhibitors” (Kalypsys, Inc., priority 2004, dated 2010).
# Molecular target: T1, hiNOS (Homo sapiens, UniProt P35228)
# T1 construct: expressed in transfected cells; host or cells: HEK293
# Assay: DAN assay, hiNOS expressed in transiently transfected HEK293 cells
# Assay type: cell-based
# Conditions: HEK293 cells transiently transfected with hiNOS
# How it was run: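 Human iNOS, nNOS or eNOS transiently expressed in HEK293 cells, with nNOS and eNOS needing added cofactors for activity. NO production is read as nitrite by fluorometry: 2,3-diaminonaphthalene forms fluorescent […], detecting 10 nM to 10 μM nitrite.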
row,EC50 [nM],Structure (SMILES)
1,< 1000,"N#CCN(CCCNCc1ccc2c(c1)OCO2)c1nc(-n2ccnc2)ns1 [Example 60, [{3-[(Benzo[1,3]dioxol-5-ylmethyl)-amino]-propyl}-(3-imidazol-1-yl-[1,2,4]thiadiazol-5-yl)-amino]-acetonitrile]"
2,< 50000,"O=C(O)CN(CCCNCc1ccc2c(c1)OCO2)c1nc(-n2ccnc2)ns1 [Example 55, [{3-[(Benzo[1,3]dioxol-5-ylmethyl)-amino]-propyl}-(3-imidazol-1-yl-[1,2,4]thiadiazol-5-yl)-amino]-acetic acid]"
3,< 1000,"CN(CCc1ccc2c(c1)OCCO2)CCN(C)c1nc(-n2ccnc2)ns1 [Example 84, N-[2-(2,3-Dihydro-benzo[1,4]dioxin-6-yl)-ethyl]-N′-(3-imidazol-1-yl-[1,2,4]thiadiazol-5-yl)-N,N′-dimethyl-ethane-1,2-diamine]"
4,< 1000,"CNC(=O)C(CCCNCc1ccc2c(c1)OCO2)c1nc(-n2ccnc2)ns1 (centres unmarked) [Example 40, 5-[(Benzo[1,3]dioxol-5-ylmethyl)-amino]-2-(3-imidazol-1-yl-[1,2,4]thiadiazol-5-yl)-pentanoic acid methylamide]"
5,> 50000,"CN(CCCNCc1ccc2c(c1)OCO2)c1nc(-n2cncn2)ns1 [Example 145, N′-Benzo[1,3]dioxol-5-ylmethyl-N-methyl-N-(3-[1,2,4]triazol-1-yl-[1,2,4]thiadiazol-5-yl)-propane-1,3-diamine]"
6,< 1000,"CN(CCCNCCc1ccc2c(c1)OCCO2)c1nc(-n2ccnc2)ns1 [Example 85, N′-[2-(2,3-Dihydro-benzo[1,4]dioxin-6-yl)-ethyl]-N-(3-imidazol-1-yl-[1,2,4]thiadiazol-5-yl)-N-methyl-propane-1,3-diamine]"
7,< 1000,"Cc1cc(C(C)(C)C(=O)NCCNCc2ccc3c(c2)OCO3)nc(-n2ccnc2)n1 [Example 66, N-{2-[(Benzo[1,3]dioxol-5-ylmethyl)-amino]-ethyl}-2-(2-imidazol-1-yl-6-methyl-pyrimidin-4-yl)-isobutyramide]"
8,> 50000,"CN(CCCNCc1ccncc1)c1nc(-n2ccnc2)ns1 [Example 21, N-(3-Imidazol-1-yl-[1,2,4]thiadiazol-5-yl)-N-methyl-N′-pyridin-4-ylmethyl-propane-1,3-diamine]"
9,< 1000,"Cc1cc(C2C(C(=O)NCCc3ccc4c(c3)OCO4)CCN2C)nc(-n2ccnc2)n1 (centres unmarked) [Example 125, 2-(2-Imidazol-1-yl-6-methyl-pyrimidin-4-yl)-1-methyl-pyrrolidine-3-carboxylic acid (2-benzo[1,3]dioxol-5-yl-ethyl)-amide]"
10,< 1000,"CN(CCCN(Cc1ccc(O)cc1)Cc1ccc(O)cc1)c1nc(-n2ccnc2)ns1 [Example 36, N-(3-Imidazol-1-yl-[1,2,4]thiadiazol-5-yl)-N′,N′-bis-(4-hydroxy-benzyl)-N-methyl-propane-1,3-diamine]"
11,< 1000,Cc1cc(C2CCCCN2CCN(C)Cc2ccc3c(c2)OCO3)nc(-n2ccnc2)n1 (centres unmarked) [Example 134]
12,< 1000,"Cc1cc(C(C)NCCNC(C)c2ccc3c(c2)OCO3)nc(-n2ccnc2)n1 (centres unmarked) [Example 44, N-(1-Benzo[1,3]dioxol-5-yl-ethyl)-N′-[1-(2-imidazol-1-yl-6-methyl-pyrimidin-4-yl)-ethyl]-ethane-1,2-diamine]"
13,< 1000,"O=C(NCCc1ccc2c(c1)OCCO2)[C@H]1C[C@H](O)CN1c1nc(-n2ccnc2)ns1 [Example 126, (2R,4S)-4-Hydroxy-1-(3-imidazol-1-yl-[1,2,4]thiadiazol-5-yl)-pyrrolidine-2-carboxylic acid [2-(2,3-dihydro-benzo[1,4]dioxin-6-yl)-ethyl]-amide]"
14,< 1000,"N=C(CN(CCCNCc1ccc2c(c1)OCO2)c1nc(-n2ccnc2)ns1)NO [Example 63, 2-[{3-[(Benzo[1,3]dioxol-5-ylmethyl)-amino]-propyl}-(3-imidazol-1-yl-[1,2,4]thiadiazol-5-yl)-amino]-N-hydroxy-acetamidine]"
15,> 50000,CN(CCCN(Cc1ccc2c(c1)OCO2)C(=O)OC(C)(C)C)c1nc(-n2cnc(I)c2)ns1 [Example 80]
16,> 50000,"Cc1cc(CNC(=O)C2CCCN2Cc2ccc(F)cc2)nc(-n2ccnc2)n1 (centres unmarked) [Example 111, 1-(4-Fluoro-benzyl)-pyrrolidine-2-carboxylic acid (2-imidazol-1-yl-6-methyl-pyrimidin-4-ylmethyl)-amide]"
17,< 50000,"CNC(=O)C1CCC(C(=O)NCCc2ccc3c(c2)OCO3)N1c1nc(-n2ccnc2)ns1 (centres unmarked) [Example 96, 1-(3-Imidazol-1-yl-[1,2,4]thiadiazol-5-yl)-pyrrolidine-2,5-dicarboxylic acid 2-[(2-benzo[1,3]dioxol-5-yl-ethyl)-amide] 5-methylamide]"

row,EC50 [nM],Structure (SMILES)
1,< 1000,"Cc1cc(C(C)(C)CNC(=O)NCc2ccc3c(c2)OCO3)nc(-n2ccnc2)n1 [Example 144, 1-Benzo[1,3]dioxol-5-ylmethyl-3-[2-(2-imidazol-1-yl-6-methyl-pyrimidin-4-yl)-2-methyl-propyl]-urea]"
2,< 1000,"CN(CCNCCc1ccc2c(c1)OCCO2)c1nc(-n2ccnc2)ns1 [Example 83, N′-[2-(2,3-Dihydro-benzo[1,4]dioxin-6-yl)-ethyl]-N-(3-imidazol-1-yl-[1,2,4]thiadiazol-5-yl)-N-methyl-ethane-1,2-diamine]"
3,< 1000,"O=C(NCCc1ccc2c(c1)OCCO2)[C@H]1C[C@@H](O)CN1c1nc(-n2ccnc2)ns1 [Example 123, (2R,4R)-4-Hydroxy-1-(3-imidazol-1-yl-[1,2,4]thiadiazol-5-yl)-pyrrolidine-2-carboxylic acid [2-(2,3-dihydro-benzo[1,4]dioxin-6-yl)-ethyl]-amide]"
4,< 50000,"Cc1cc(C(C)NCCNCc2ccc(-n3cccc3)cc2)nc(-n2ccnc2)n1 (centres unmarked) [Example 97, N-[1-(2-Imidazol-1-yl-6-methyl-pyrimidin-4-yl)-ethyl]-N′-(4-pyrrol-1-yl-benzyl)-ethane-1,2-diamine]"
5,> 50000,"Cc1cc(CNC(=O)C2CCCN2Cc2ccco2)nc(-n2ccnc2)n1 (centres unmarked) [Example 118, 1-Furan-2-ylmethyl-pyrrolidine-2-carboxylic acid (2-imidazol-1-yl-6-methyl-pyrimidin-4-ylmethyl)-amide]"
6,< 1000,"CC(C)[C@@H](Nc1nc(-n2ccnc2)ns1)C(=O)NCCc1ccc2c(c1)OCO2 [Example 122, (R)—N-(2-Benzo[1,3]dioxol-5-yl-ethyl)-2-(3-imidazol-1-yl-[1,2,4]thiadiazol-5-ylamino)-3-methyl-butyramide]"
7,< 1000,"Cc1cc(C2CCCN2CCNCc2ccc3c(c2)OCO3)nc(-n2ccnc2)n1 (centres unmarked) [Example 39, Benzo[1,3]dioxol-5-ylmethyl-{2-[2-(2-imidazol-1-yl-6-methyl-pyrimidin-4-yl)-pyrrolidin-1-yl]-ethyl}-amine]"
8,< 50000,"CN(CCCNCc1ccc(Cl)cc1)c1nc(-n2ccnc2)ns1 [Example 7, N′-(4-Chloro-benzyl)-N-(3-imidazol-1-yl-[1,2,4]thiadiazol-5-yl)-N-methyl-propane-1,3-diamine]"
9,< 1000,"Cc1cc(C(C)NCCN(C)Cc2ccc3c(c2)OCO3)nc(-n2ccnc2)n1 (single isomer, unassigned) [Example 130, N-Benzo[1,3]dioxol-5-ylmethyl-N′-[1-(2-imidazol-1-yl-6-methyl-pyrimidin-4-yl)-ethyl]-N-methyl-ethane-1,2-diamine]"
10,< 1000,"Cc1cc(C(C)(C)CNC(=O)CCc2ccc3c(c2)OCO3)nc(-n2ccnc2)n1 [Example 143, 3-Benzo[1,3]dioxol-5-yl-N-[2-(2-imidazol-1-yl-6-methyl-pyrimidin-4-yl)-2-methyl-propyl]-propionamide]"
11,< 1000,"CCOC(=O)CN(CCCN(C)Cc1ccc2c(c1)OCO2)c1nc(-n2ccnc2)ns1 [Example 58, [[3-(Benzo[1,3]dioxol-5-ylmethyl-methyl-amino)-propyl]-(3-imidazol-1-yl-[1,2,4]thiadiazol-5-yl)-amino]-acetic acid ethyl ester]"
12,> 50000,"CN(CCCNCc1cc2ccccc2n1C)c1nc(-n2ccnc2)ns1 [Example 19, N-(3-Imidazol-1-yl-[1,2,4]thiadiazol-5-yl)-N-methyl-N′-(1-methyl-1H-indol-2-ylmethyl)-propane-1,3-diamine]"
13,< 1000,"CC(C)[C@H](Nc1nc(-n2ccnc2)ns1)C(=O)NCCc1ccc2c(c1)OCO2 [Example 24, (S)—N-(2-Benzo[1,3]dioxol-5-yl-ethyl)-2-(3-imidazol-1-yl-[1,2,4]thiadiazol-5-ylamino)-3-methyl-butyramide]"
14,< 1000,"CCOC(=O)CN(CCCNCc1ccc2c(c1)OCO2)c1nc(-n2ccnc2)ns1 [Example 53, [{3-[(Benzo[1,3]dioxol-5-ylmethyl)-amino]-propyl}-(3-imidazol-1-yl-[1,2,4]thiadiazol-5-yl)-amino]-acetic acid ethyl ester]"
15,< 1000,"CN(CCCN(C)c1nc(-n2ccnc2)ns1)Cc1ccc2c(c1)OCCO2 [Example 82, N-(2,3-Dihydro-benzo[1,4]dioxin-6-ylmethyl)-N′-(3-imidazol-1-yl-[1,2,4]thiadiazol-5-yl)-N,N′-dimethyl-propane-1,3-diamine]"
16,< 1000,"c1cn(-c2nsc(N(CCCNCc3ccc4c(c3)OCO4)C3CC3)n2)cn1 [Example 32, N′-Benzo[1,3]dioxol-5-ylmethyl-N-cyclopropyl-N-(3-imidazol-1-yl-[1,2,4]thiadiazol-5-yl)-propane-1,3-diamine]"

row,Structure (SMILES),EC50 [nM]
1,"CN(CCCNCCc1ccc2c(c1)OCO2)c1nc(-n2ccnc2)ns1 [Example 87, N′-(2-Benzo[1,3]dioxol-5-ethyl)-N-(3-imidazol-1-yl-[1,2,4]thiadiazol-5-yl)-N-methyl-propane-1,3-diamine]",< 1000
2,"CC(=O)Oc1ccc(CN(CCCN(C)c2nc(-n3ccnc3)ns2)Cc2ccc(OC(C)=O)cc2)cc1 [Example 35, Acetic acid 4-[((4-acetoxy-benzyl)-{3-[(3-imidazol-1-yl-[1,2,4]thiadiazol-5-yl)-methyl-amino]-propyl}-amino)-methyl]-phenyl ester]",< 1000
